# Assay results from patent US20040204417A1, “Novel benzothienyl or indole derivatives, preparation and use thereof as inhibitors of prenyl transferase proteins” (priority 2001, published 2004).
# Assays:
# [1] = target: T1, protein farnesyl transferase (Bos taurus, UniProt P29702+P49355); assay: Evaluation of the inhibition of protein farnesyl transferase (dansyl-GCVLS fluorescence); format: biochemical, bovine; conditions: read-out: IC50 PFTase
# T1 construct: partially purified from bovine brain by ion-exchange chromatography; from tissue; host or cells: bovine brain
# Procedure: A) Evaluation of the inhibition of protein farnesyl transferase
# The farnesylation of the dansylated peptide GCVLS, catalyzed with the enzyme protein farnesyl transferase, results in a change in the emission spectrum of the dansyl group, and especially an increase in the emission at 505 nm when the molecule is excited at 340 nm. When measured using the spectrofluorimeter, this emission is proportional to the activity of the enzyme (Pompliano et al., J. Am. Chem. Soc. 1992; 114: 7945-7946).
# 55 mM TRIS/HCl pH 7.5; 5.5 mM DTT; 5.5 mM MgCl2; 110 μM ZnCl2, 0.22% B-octyl-B D-glucopyrannoside.
# Farnesyl pyrophosphate (FPP), (Sigma)
# Dansylated peptide dansyl-GCVLS (Neosystem/Strasbourg, France)
# The protein farnesyl transferase is partially purified from bovine brain by ion-exchange chromatography on Q-sepharose (Pharmacia) (Moores et al., J. Biol. Chem. 1991, 266: 14603-14610, Reiss et al., Cell 1990, 62: 81-88).
# The reaction mixture containing 2 μM of FPP, 2 μM of dansyl GCVLS with or without (zero) the amount of enzyme giving an intensity of 100 on the spectrofluorimeter after incubation for 10 minutes at 37° C., is prepared on ice.
# In an Eppendorf tube, 360 μl of reaction mixture are mixed with 40 μl of 10× concentrated test product or of solvent, and incubated for 10 minutes at 37° C. The reaction is quenched on ice and the fluorescence intensity is measured (excitation at 340 nm, 4 nm slit, emission at 505 nm, 10 nm slit). The tests are performed in duplicate. The results are expressed as a percentage of inhibition. Under these conditions, the derivatives of the present invention were identified as powerful inhibitors of protein farnesyl transferase (IC50<10 μM).
# Adaptation of the method to a 96-wellformat:
# The procedure is similar to that above, except that the measurements are performed in a “Black Fluorotrack 200” 96-well device (Greiner, Poitiers, France) and the readings are performed using a “Spectrametrix Gemini” 96-well fluorimeter (Molecular Devices, Sunnyvale, Calif., USA)
# GGPT I = target: T2, GGPT I (Bos taurus, UniProt P29702+Q5EAD5); assay: Evaluation of the inhibition of geranyl geranyl transferase protein I (3H-GGPP incorporation into RhoA-GST); format: biochemical, bovine; conditions: read-out: IC50 PGGTase
# T2 construct: GGPT I is partially purified from bovine brain by ion-exchange chromatography; from tissue; host or cells: bovine brain
# Procedure: B) Evaluation of the inhibition of geranyl geraryl transferase protein I:
# 55 mM TRIS/HCl pH 7.5; 5.5 mM DTT; 5.5 mM MgCl2; 110 μM ZnCl2, 0.22% N-octyl-B D-glucopyrannoside.
# ^3H-geranylgeranyl pyrophosphate (GGPP), 66 μM, 15 CI/mmol, (Isotopchim)
# Rho-GST recombinant protein
# GGPT I is partially purified from bovine brain by ion-exchange chromatography on Q-sepharose (Pharmacia); elution at 0.23 and 0.4 M NaCl, respectively.
# The reaction mixture containing 0.2 μM of ^3H-GGPP, 1 μM of RhoA-GST with or without (zero) 5 μl of GGPT/test, is prepared on ice.
# In an Eppendorf tube, 45 μl of reaction mixture are mixed with 5 μl of 10× concentrated test product or of solvent, and incubated for 45 minutes at 37° C. A 45 μl aliquot is placed on a phosphocellulose P81 filter (Whatman, Maidstone, UK) numbered, washed with 50% ethanol, phosphoric acid (0.5%) and counted by scintillation.
# The tests are performed in duplicate. The results are expressed as a percentage of inhibition.
# Adaptation of the method to a 96-wellformat
# The procedure is similar to that above, except that the measurements are performed in 96-well plates (Nunc, France) and the reactions are then passed through a 96-well “Unifilter” (Whatman, Maidstone, UK) containing a phosphocellulose P81 buffer using a “Filtermate 196” system (Packard, France).
# After washing with 50% ethanol and phosphoric acid (0.5%), the filters are counted by scintillation on a “Packard Topcount” instrument.
# The tests are performed in triplicate. The results are expressed as a percentage of inhibition.
structure (smiles),measurement,setting,value
"N#Cc1ccc(Cn2cncc2CN(c2ccc3sc(C(=O)NC4CCCC4)cc3c2)S(=O)(=O)c2ccccc2)cc1 [Example 55, N-Cyclopentyl-5-{benzenesulfonyl-[3-(4-cyanobenzyl)-3H-imidazol-4-ylmethyl]amino}benzo[b]thiophene-2-carboxamide]",IC50,[1],3 nM
"CC(C)C[C@H](NC(=O)c1cc2c(NCc3cncn3Cc3ccc(C#N)cc3)cccc2s1)C(=O)O [Example 28, (2S)-2-[(4-{[3-(4-cyanobenzyl)-3H-imidazol-4-ylmethyl]amino}benzo[b]thiophene-2-carbonyl)amino]-4-methylpentanoic acid]",IC50,[1],4 nM
same,IC50,GGPT I,10 nM
"CCCCNC(=O)c1cc2cc(N(Cc3cncn3Cc3ccc(C#N)cc3)S(=O)(=O)c3ccccc3)ccc2s1 [Example 57, N-Butyl-5-{benzenesulfonyl-[3-(4-cyanobenzyl)-3H-imidazol-4-ylmethyl]amino}benzo[b]thiophene-2-carboxamide]",IC50,[1],3 nM
"N#Cc1ccc(Cn2cncc2CN(C(=O)Cc2ccccc2)c2ccc3sc(C(=O)N4CCSCC4)cc3c2)cc1 [Example 100, N-[3-(4-Cyanobenzyl)-3H-imidazol-4-ylmethyl]-N-[2-(thiomorpholine-4-carbonyl)benzo[b]thiophen-5-yl]-2-phenylacetamide]",IC50,[1],6 nM
"N#Cc1ccc(Cn2cncc2CN(C(=O)c2cccs2)c2ccc3sc(C(=O)N4CCSCC4)cc3c2)cc1 [Example 91, N-[3-(4-Cyanobenzyl)-3H-imidazol-4-ylmethyl]-N-[2-(thiomorpholine-4-carbonyl)benzo[b]thiophen-5-yl]thiophene-2-carboxamide]",IC50,[1],2 nM
"N#Cc1ccc(Cn2cncc2CN(C(=O)c2ccccc2)c2ccc3[nH]c(C(=O)N4CCSCC4)c(-c4ccccc4)c3c2)cc1 [Example 165, N-[3-(4-Cyanobenzyl)-3H-imidazol-4-ylmethyl]-N-[3-phenyl-2-(thiomorpholine-4-carbonyl)-1H-indol-5-yl]benzamide]",IC50,[1],10 nM
same,IC50,GGPT I,60 nM
COC(=O)[C@H](CCSC)NC(=O)c1cc2cc(N(Cc3cncn3Cc3ccc(C#N)cc3)S(=O)(=O)c3ccccc3)ccc2s1 [Example 40],IC50,[1],2 nM
"CCOC(=O)c1cc2cc(NCc3cncn3Cc3ccc(C#N)cc3)ccc2s1 [Example 34, Ethyl 5-{[3-(4-cyanobenzyl)-3H-imidazol-4-ylmethyl]amino}benzo[b]thiophene-2-carboxylate]",IC50,[1],10 nM
"N#Cc1ccc(Cn2cncc2CN(C(=O)c2ccccc2)c2ccc3[nH]c(C(=O)N4CCCCC4)c(-c4ccccc4)c3c2)cc1 [Example 164, N-[3-(4-Cyanobenzyl)-3H-imidazol-4-ylmethyl]-N-[3-phenyl-2-(piperidine-1-carbonyl)-1H-indol-5-yl]benzamide]",IC50,[1],8 nM
same,IC50,GGPT I,20 nM
"N#Cc1ccc(Cn2cncc2CN(c2ccc3sc(C(=O)NCc4cccs4)cc3c2)S(=O)(=O)c2ccccc2)cc1 [Example 46, N-(Thiophen-2-ylmethyl)-5-{benzenesulfonyl-[3-(4-cyanobenzyl)-3H-imidazol-4-ylmethyl]amino}benzo[b]thiophene-2-carboxamide]",IC50,[1],1 nM
"CSCC[C@H](NC(=O)c1cc2c(N(Cc3cncn3Cc3ccc(C#N)cc3)S(=O)(=O)c3ccccc3)cccc2s1)C(=O)O [Example 30, (2S)-2-[(4-{benzenesulfonyl-[3-(4-cyanobenzyl)-3H-imidazol-4-ylmethyl]amino}benzo[b]thiophene-2-carbonyl)amino]-4-(methylsulfanyl)butyric acid]",IC50,[1],6 nM
"N#Cc1ccc(Cn2cncc2CN(C(=O)C2CCCCC2)c2ccc3[nH]c(C(=O)N4CCCCC4)c(-c4ccccc4)c3c2)cc1 [Example 167, Cyclohexanecarboxylic-[3-(4-cyanobenzyl)-3H-imidazol-4-ylmethyl]-[3-phenyl-2-(piperidine-1-carbonyl)-1H-indol-5-yl]amide acid]",IC50,[1],400 nM
same,IC50,GGPT I,7 nM
"CCCCN(Cc1cncn1Cc1ccc(C#N)cc1)c1ccc2sc(C(=O)N3CCSCC3)cc2c1 [Example 113, 4-[5-({Butyl[2-(thiomorpholine-4-carbonyl)benzo[b]thiophen-5-yl]amino}methyl)imidazol-1-ylmethyl]benzonitrile]",IC50,[1],8 nM
"N#Cc1ccc(Cn2cncc2CN(C(=O)c2cccc(F)c2)c2ccc3sc(C(=O)N4CCSCC4)cc3c2)cc1 [Example 97, N-[3-(4-Cyanobenzyl)-3H-imidazol-4-ylmethyl]-N-[2-(thiomorpholine-4-carbonyl)benzo[b]thiophen-5-yl]-3-fluorobenzamide]",IC50,[1],1 nM
"N#Cc1ccc(Cn2cncc2CN(C(=O)C2CCCCC2)c2ccc3sc(C(=O)N4CCSCC4)cc3c2)cc1 [Example 101, N-[3-(4-Cyanobenzyl)-3H-imidazol-4-ylmethyl]-N-[2-(thiomorpholine-4-carbonyl)benzo[b]thiophen-5-yl]cyclohexanecarboxamide]",IC50,[1],5 nM
"CC(C)C[C@H](NC(=O)c1cc2cc(N(Cc3cncn3Cc3ccc(C#N)cc3)S(=O)(=O)c3ccccc3)ccc2s1)C(=O)O [Example 33, (2S)-2-[(5-{benzenesulfonyl-[3-(4-cyanobenzyl)-3H-imidazol-4-ylmethyl]amino}benzo[b]thiophene-2-carbonyl)amino]-4-methylpentanoic acid]",IC50,[1],6 nM
same,IC50,GGPT I,70 nM
"CCCC(=O)N(Cc1cncn1Cc1ccc(C#N)cc1)c1ccc2sc(C(=O)N3CCSCC3)cc2c1 [Example 92, N-[3-(4-Cyanobenzyl)-3H-imidazol-4-ylmethyl]-N-[2-(thiomorpholine-4-carbonyl)benzo[b]thiophen-5-yl]butyramide]",IC50,[1],2 nM
